In patent publication US10080748B2, “Use of flap inhibitors to reduce neuroinflammation mediated injury in the central nervous system” (Bioscience Pharma Partners, LLC, priority 2014, dated 2018):

How the values were obtained:
[1] = system: rats subjected to FPI (TBI model); assay: Evans Blue extravasation, BBB permeability in hippocampus (rat FPI); assay type: in vivo; settings: 15 minutes after TBI; slices five hours post-injury
Experimental: (§1) Craniotomy and lateral fluid percussion injury (FPI) were performed using a previously validated and published procedure. Farias S, et al. J. Neurotraum, 26, 1977-1986, 2009; Frey L. C. et al. J. Neurosci. Methods 177, 267-272, 2009. Throughout the specification animals subjected to this protocol are referred to as having a TBI since this treatment protocol is a TBI model. Briefly, rats were anesthetized with 3-5% isoflurane, isosol, VEDCO Inc., St. Joseph, Mo., via nose cone and mounted in a stereotaxic head frame. A 3 millimeter (mm) craniotomy was created and centered at 3 mm caudal to bregma and 3.5 mm left of the sagittal suture, keeping the exposed dura intact. […] Moistened food pellets were provided after injury, and all animals were monitored daily for well-being and weight changes. […]
One hour prior to FPI, rats received a 5 ml intraperitoneal (IP) injection of Evans Blue (EB) solution, 2% w/v in saline. […] Images from each slice were stitched together using Fiji/ImageJ (NIH), and EB-positive cells in the hippocampal cell layers were quantified using the cell counter tool.
The inventors utilized Evans Blue (EB) fluorescence to assess BBB permeability in the rat FPI model. […] Fluorescence microscopy was used to image brain slices harvested five hours post-injury, taking advantage of EB's intrinsic fluorescent properties, excitation at 620 nm and emission at 680 nm. […]

[2] = system: rats subjected to FPI (TBI model); assay: Hippocampal long-term potentiation (LTP) in slices four days after TBI (rat FPI); assay type: in vivo
Experimental: as §1, with “intact. One steel support screw was embedded in the skull on the contralateral side. A Luer-Lock hub with an inside diameter of 3.5 mm was centered over the craniotomy and bonded to the skull with cyanoacrylate adhesive and capped. Dental acrylic, Snap, Parka, Inc., Edgewood, N.J., was poured around the huh and screw. After the acrylic hardened antibiotic ointment was applied around the cap and the animals were returned to their cages.” for “intact.”
Four days after FPI or at the times indicated in the figures for CHI model animals were sacrificed and the brains were rapidly removed and immersed in ice-cold, sucrose containing cutting buffer (87 mM NaCl, 2.5 mM KCl, 7 mM MgCl2, 0.5 mM CaCl2, 1.25 mM NaH2PO4, 25 mM D-glucose, 35 mM sucrose, and 25 mM NaHCO3) for 40-60 seconds to cool the interior of the brain. […] A bipolar tungsten stimulating electrode was placed in the Schaffer collateral (SC) pathway to evoke synaptic field excitatory postsynaptic potentials (fEPSPs) recorded in the stratum radiatum using a nearby glass micropipette filled with aCSF. […]

[3] = cited from earlier work

CC(C)c1ccc2c(c1)c(SC(C)(C)C)c(CC(C)(C)C(=O)O)n2Cc1ccc(Cl)cc1 [MK-886, 1-[(4-Chlorophenyl)methyl]-3-[(1,1-dimethylethyl)thio]-α,α-dimethyl-5-(1-methylethyl)-1H-Indole-2-propanoic acid]
number of EB-positive cells in the CA1 region [1]: 69.25+/−36.82
LTP, % of control fEPSP slope at 58-60 min ([2]; 30 minutes post-injury): 256.13+/−8.527%
LTP, % of control fEPSP slope at 58-60 min ([2]; 30 minutes pre-injury): 242.75+/−76.94%
LTP, % of control fEPSP slope at 58-60 min ([2]; 60 minutes post-injury): 145.46+/−18.30
plasma protein binding [3]: high
